Results: PMC7129073 (Clinical Microbiology and Infection, 2015)
≈ marks a conversion by molar mass, not a printed value. Where two headings read alike, the source gives them in different places.

Experiments:
Streptococcus pneumoniae [1] = assay: Susceptibility testing; format: cell-based; settings: 99 isolates tested
[2] = tested on: viridans group streptococci (VGS); assay: MIC; format: cell-based
S. pneumoniae [3] = format: cell-based, Streptococcus pneumoniae
S. pneumoniae (SPN) = assay: SENTRY Brazil, NCCLS broth microdilution; format: cell-based, Streptococcus pneumoniae
S. pneumoniae [4] = assay: E-test MIC, children with URTI, Brazil; format: cell-based, Streptococcus pneumoniae
S. pneumoniae (Sp) = assay: Broth microdilution, point prevalence study Spain; format: cell-based, Streptococcus pneumoniae; settings: 360 isolates, February 2004; penicillin I+R
S. pneumoniae [5] = assay: Susceptibility of bacteraemia isolates of children, Taiwan; format: cell-based, Streptococcus pneumoniae; settings: 79 isolates
N.gonorrhoeae = assay: microbe, parasite or virus in culture; format: cell-based; settings: Neisseria gonorrhoeae
F. necrophorum = assay: E-test, 13 clinical isolates; format: cell-based, Fusobacterium necrophorum
H.influenzae = assay: Broth microdilution; format: cell-based, Haemophilus influenzae; settings: Haemophilus influenzae
S. pneumoniae [6] = assay: Broth microdilution; format: cell-based, Streptococcus pneumoniae
PRSP = assay: Broth microdilution; format: cell-based, Streptococcus pneumoniae
ERSP = assay: Broth microdilution; format: cell-based, Streptococcus pneumoniae
[7] = tested on: Streptococcus pneumoniae (SPN); assay: MIC; format: cell-based; settings: 8378 isolates
[8] = tested on: Haemophilus influenzae (HI); assay: MIC; format: cell-based; settings: 7489 isolates
[9] = tested on: Moraxella catarrhalis (MC); assay: MIC; format: cell-based; settings: 2497 isolates
[10] = tested on: Streptococcus pyogenes (SPY); assay: MIC; format: cell-based; settings: 2522 isolates
[11] = tested on: viridans group streptococci (VgS) and Streptococcus bovis; assay: Broth microdilution and disk diffusion; format: cell-based; settings: nine species
Streptococcus pneumoniae [12] = assay: BSAC agar dilution, lower respiratory isolates UK and Ireland; format: cell-based
S. pneumoniae [13] = assay: PROTEKT Italy, NCCLS microdilution; format: cell-based, Streptococcus pneumoniae
S.pneumoniae = assay: Italian survey of severe infections 2003, MIC; format: cell-based, Streptococcus pneumoniae
S. pneumoniae [14] = assay: MIC of invasive strains, Saint George Hospital 2001–2004; format: cell-based, Streptococcus pneumoniae
S. pneumoniae [15] = assay: Broth microdilution; format: cell-based, Streptococcus pneumoniae; settings: 275 isolates
[16] = tested on: ‘wild type’ Staphylococcus epidermidis skin isolates; assay: NCCLS disk diffusion; format: cell-based; settings: 52 isolates
[17] = tested on: foreign body infection Staphylococcus epidermidis strains; assay: NCCLS disk diffusion; format: cell-based; settings: 86 strains
enterococci = assay: Disk diffusion and E-test, faecal isolates of cancer patients; format: cell-based, Enterococcus; settings: 38 strains
[18] = tested on: glycopeptide intermediate Staphylococcus species (GISS); assay: VITEK II, screening plate and E test, blood isolates; format: cell-based, coagulase-negative Staphylococci; settings: Staphylococcus
[19] = tested on: Staphylococci epidermidis; assay: E-test, classical method and macromethod; format: cell-based, Staphylococcus epidermidis; settings: four strains: 8, 8, 12, 12; BHI agar, 2.0 McFarland, 48 h
[20] = tested on: Staphylococcus haemolyticus; assay: E-test, classical method and macromethod; format: cell-based
MRSA [21] = assay: Disk diffusion; format: cell-based, Staphylococcus aureus; settings: 200 isolates
MSSA = assay: Agar dilution MIC; format: cell-based, Staphylococcus aureus
MRSA [22] = assay: Agar dilution MIC; format: cell-based, Staphylococcus aureus
CA-MRSA = assay: MIC, MBC; format: cell-based, Staphylococcus aureus; settings: time kill, two strains
MDR-MRSA = assay: MIC, MBC; format: cell-based, Staphylococcus aureus; settings: time kill, two strains
E. faecium = assay: E-test susceptibility; format: cell-based, Enterococcus faecium
S. aureus 10 = assay: in vitro dynamic model, enrichment of resistant mutants; format: cell-based
[23] = tested on: agr+ group II S. aureus (RN6607); assay: in vitro pharmacodynamic model, MIC by E-test and microdilution; format: cell-based; settings: Staphylococcus aureus, 72 h, read-out: post-exposure MIC
[24] = tested on: agr− group II S. aureus (RN9120); assay: as above; format: cell-based; settings: Staphylococcus aureus, read-out: post-exposure MIC
[25] = tested on: Stenotrophomonas maltophilia; assay: E-test, sputum isolates of children with cystic fibrosis; format: cell-based; settings: 2000–2004
S. maltophilia = assay: Susceptibility of respiratory isolates of cancer patients; format: cell-based, Stenotrophomonas maltophilia; settings: 40 patients
Acinetobacter = assay: Disk diffusion; format: cell-based; settings: 37 isolates selected as resistant to beta-lactams
[26] = NCCLS breakpoints (Amox/Clav 2/1 mcg/mL)

CC1(C)S[C@@H]2[C@H](NC(=O)Cc3ccccc3)C(=O)N2[C@H]1C(=O)O [penicillin]
resistant isolates (Streptococcus pneumoniae [1]): 14.1%
MIC50 [2]: 0.06 µg/mL (≈ 0.179 µM)
MIC90 [2]: 0.5 µg/mL (≈ 1.5 µM)
MIC range of isolates with reduced susceptibility [2]: 0.25 to 4 µg/mL
isolates with reduced susceptibility ([2]; 107 strains): 18.7%
intermediate susceptible (S. pneumoniae [3]): 30%
% R (> 2 mg/L) to PEN (S. pneumoniae (SPN); 1998): 3%
% S (S. pneumoniae (SPN); 1998): 84%
% R (> 2 mg/L) to PEN (S. pneumoniae (SPN); 1999): 6%
% S (S. pneumoniae (SPN); 1999): 83%
% R (> 2 mg/L) to PEN (S. pneumoniae (SPN); 2000): 5%
% S (S. pneumoniae (SPN); 2000): 75%
% R (> 2 mg/L) to PEN (S. pneumoniae (SPN); 2001): 8%
% S (S. pneumoniae (SPN); 2001): 82%
% R (> 2 mg/L) to PEN (S. pneumoniae (SPN); 2002): 8%
% S (S. pneumoniae (SPN); 2002): 78%
% R (> 2 mg/L) to PEN (S. pneumoniae (SPN); 2003): 10%
% S (S. pneumoniae (SPN); 2003): 72%
intermediate (I) (S. pneumoniae [4]; 137 isolates): 23.4%
resistant (R) (S. pneumoniae [4]; 137 isolates): 10.2%
susceptible (S) (S. pneumoniae [4]; 137 isolates): 66.4%
MIC90 (S. pneumoniae [4]; Streptococcus pneumoniae): 1.5 µg/mL (≈ 4.49 µM)
resistance (S. pneumoniae (Sp)): 42%
nonsusceptible isolates (MIC > 0.1 μg/mL) (S. pneumoniae [5]): 82%
MIC (N.gonorrhoeae; strain 76mu6): 16 µg/mL (≈ 47.8 µM)
MIC (N.gonorrhoeae; strain 76mu10): 16 µg/mL (≈ 47.8 µM)
MIC (N.gonorrhoeae; strain 92mu6): 0.5 µg/mL (≈ 1.5 µM)
MIC (N.gonorrhoeae; strain 92mu13): 0.5 µg/mL (≈ 1.5 µM)
MIC range (F. necrophorum): 0.004 to 256 µg/mL
MIC50 (F. necrophorum; Fusobacterium necrophorum): 0.016 µg/mL (≈ 0.0478 µM)
MIC90 (F. necrophorum; Fusobacterium necrophorum): > 32 µg/mL
MIC90 (H.influenzae): > 16 µg/mL
%Sus (S. pneumoniae [6]; [26]): 60.6%
MIC90 (S. pneumoniae [6]; Streptococcus pneumoniae): 2 µg/mL (≈ 5.98 µM)
%Sus (PRSP; [26]): 0.0%
MIC90 (PRSP; Streptococcus pneumoniae, PRSP): 4 µg/mL (≈ 12 µM)
%Sus (ERSP; [26]): 18.6%
MIC90 (ERSP; Streptococcus pneumoniae): 4 µg/mL (≈ 12 µM)
MIC90 [7]: 1 ig/ml
MIC90 [8]: 8 ig/ml
MIC90 [9]: 8 ig/ml
MIC90 [10]: 0.03 ig/ml
% S, range between species [11]: 65.5–98.1%
resistance (PEN-NS >0.06, TET-R >1, ERY-R >0.5, CIP-R >2 mg/L) (Streptococcus pneumoniae [12]; Ireland 1999–2000, N 66): 40.9%
resistance (same cut-offs) (Streptococcus pneumoniae [12]; Ireland 2000–2001, N 59): 42.4%
resistance (same cut-offs) (Streptococcus pneumoniae [12]; Ireland 2001–2002, N 68): 36.8%
resistance (same cut-offs) (Streptococcus pneumoniae [12]; Ireland 2002–2003, N 89): 24.7%
resistance (same cut-offs) (Streptococcus pneumoniae [12]; Ireland 2003–2004, N 76): 14.5%
resistance (same cut-offs) (Streptococcus pneumoniae [12]; UK 1999–2000, N 595): 7.4%
resistance (same cut-offs) (Streptococcus pneumoniae [12]; UK 2000–2001, N 608): 7.1%
resistance (same cut-offs) (Streptococcus pneumoniae [12]; UK 2001–2002, N 631): 4.6%
resistance (same cut-offs) (Streptococcus pneumoniae [12]; UK 2002–2003, N 683): 6.4%
resistance (same cut-offs) (Streptococcus pneumoniae [12]; UK 2003–2004, N 709): 5.9%
total resistance (S. pneumoniae [13]; year 1: 2002): 23.7%
total resistance (S. pneumoniae [13]; year 2: 2003): 23.4%
resistance (S.pneumoniae): 20.0%
% S (S. pneumoniae [14]): 46%
%R (S. pneumoniae [14]): 54%
Susceptibility (S. pneumoniae [15]): 83.6%
% resistant [16]: 46.2%
% resistant [17]: More than 30%

CN[C@H](CC(C)C)C(=O)N[C@H]1C(=O)N[C@@H](CC(N)=O)C(=O)N[C@H]2C(=O)N[C@H]3C(=O)N[C@H](C(=O)N[C@H](C(=O)O)c4cc(O)cc(O)c4-c4cc3ccc4O)[C@H](O)c3ccc(c(Cl)c3)Oc3cc2cc(c3O[C@@H]2O[C@H](CO)[C@@H](O)[C@H](O)[C@H]2O[C@H]2C[C@](C)(N)[C@H](O)[C@H](C)O2)Oc2ccc(cc2Cl)[C@H]1O [vancomycin]
MIC50 [2]: 0.5 µg/mL (≈ 0.345 µM)
MIC90 [2]: 1 µg/mL (≈ 0.69 µM)
tolerant isolates ([2]; 83 isolates, tolerance to VA and TP): 77.6%
susceptibility of all isolates ([2]; NCCLS): All isolates were susceptible
resistant (S. pneumoniae [3]): 0%
sensitivity of all isolated strains (enterococci): All the isolated strains were sensitive
MIC ([18]; read-out: MIC of intermediate sensitive strains): 8 to 12 µg/mL
MIC ([18]; read-out: MIC of resistant strain): 32 µg/mL
MIC, macromethod of E-test [19]: 12 µg/mL
MIC ([20]; read-out: MIC, classical E-test): 3 µg/mL (≈ 2.07 µM)
MIC ([20]; read-out: MIC, macromethod of E-test): 32 µg/mL (≈ 22.1 µM)
sensitivity (MRSA [21]): All isolates were sensitive
MIC50 (MSSA; Staphylococcus aureus, MSSA): < 0.5 µg/mL
MIC90 (MSSA; Staphylococcus aureus, MSSA): < 1 µg/mL
MIC range (MSSA; n = 200): 0.5 to 1 µg/mL (≈ 0.345 to 0.69 µM)
MIC50 (MRSA [22]; Staphylococcus aureus, MRSA): < 1 µg/mL
MIC90 (MRSA [22]; Staphylococcus aureus, MRSA): < 1 µg/mL
MIC range (MRSA [22]; n = 50): 1 µg/mL (≈ 0.69 µM)
% S, range between species [11]: 100.0%
Δ Log10 CFU/ml (CA-MRSA): −3.78 Log10 CFU/ml
Δ Log10 CFU/ml (MDR-MRSA): −3.97 Log10 CFU/ml
Susceptibility (E. faecium; ICU): 93%
Susceptibility (E. faecium; non-ICU): 98%
% isolates resistant (VRE) (E. faecium; total): 4%
AUC/MIC predicted to protect from selection of resistant mutants (S. aureus 10): 256 h
AUC/MIC at which resistant mutants were selected (S. aureus 10; five-day treatment): 32 to 128 h
MIC [23]: ≤ 2 µg/mL
MIC [24]: 6 µg/mL (≈ 4.14 µM)

ticarcillin/clavulanic acid
sensitivity [25]: 59.3%
Susceptible isolates (S. maltophilia): 65%
resistant isolates (Acinetobacter): 32.4%
